The values below come from patent publication US10710993B2, “Benzofuran pyrazole amine kinase inhibitor” (Hangzhou REX Pharmaceutical Co., LTD., priority 2016, dated 2020).

The target in one experiment is T1, ALK L1196M (Homo sapiens, UniProt Q9UM73, L1196M).
T1 construct: purchased Life Technology
Put plainly: LanthaScreen Eu Kinase Binding Assay (TR-FRET) on ALK mutant. The text has this: Meanwhile, The LanthaScreen® Eu Kinase Binging Assay (TR-FRET) method was used for determining ALK Mutants (such as ALK L1196M) inhibitory activity IC50. LanthaScreen Eu kinase binding experiment detected Alexa Fluor conjugate or kinase “tracer” binding by adding Eu labeled antibodies or anti-label antibodies. The combination of tracer and antibody with kinase leads to a high level of FRET, whereas the use of kinase inhibitors in place of tracer may cause FRET loss.
(§1) The kinase activity assay was determined by using kinase assay panel (Life Technology) and the result was in table 1.

A further experiment addresses T2, TEL-ALK-G1202R-BaF3 (Homo sapiens, UniProt Q9UM73, G1202R, cells depend on it).
T2 construct: fused on or other part: TEL (ETV6) N-terminal oligomerising part fused before the ALK intracellular/kinase part; P41212 (Transcription factor ETV6)
Put plainly: Cell proliferation experiment (Cell-Titer GLO), TEL-ALK-G1202R-BaF3. It is filed as cell-based. The settings on record: 72 h, read-out: IC50 TEL-ALK G1202R-BaF3. The protocol: (§2) Compounds to be tested: Positive compound Ceritinib and the compounds obtained by the examples of the present invention.
(§3) Cell lines: Karpas-299 and NCI-H3122 which were purchased from the Nanjing kebai biotechnology Co. LTD; TEL-ALK-F1174L-BaF3, TEL-ALK-G1202R-BaF3, TEL-ALK-C1156Y-BaF3 and TEL-ALK-L1196M-BaF3 which were purchased from Hefei zhongkopruisheng biological medicine technology Co. LTD.
(§4) Method: Cells were seeded in 96-well plates for 24 h in growth media containing 10% fetalbovine serum (FBS) and cultured overnight at 37° C. The following day, serial dilutions of compounds or appropriate control were added to the designated wells, and cells were incubated at 37° C. for 72 h. A Cell Titer Glo assay (Promega) was then performed to determine the relative cell numbers. IC50 values were calculated by concentration-response curve fitting using a four-parameter analytical method with Graphpad 6.0. Drug inhibition rate (%)=100%−[OD(Compound)−OD(blank)]/[OD(vehicle)−OD(blank)]×100% Equation: […]

For the next experiment, the target named is T3, TEL-ALK-F1174L-BaF3 (Homo sapiens, UniProt Q9UM73, F1174L, cells depend on it).
T3 construct: fused on or other part: TEL (ETV6) N-terminal oligomerising part fused before the ALK intracellular/kinase part; P41212 (Transcription factor ETV6)
The experiment can be described thus: Cell proliferation experiment (Cell-Titer GLO), TEL-ALK-F1174L-BaF3. As to conditions: 72 h, read-out: IC50 TEL-ALK F1174L-BaF3. It is filed as cell-based. Here is the method:
as §2, §3, §4

In the next experiment the test system is NCI-H3122. The experiment can be described thus: Cell proliferation experiment (Cell-Titer GLO), NCI-H3122. Type of experiment: cell-based. As to conditions: Homo sapiens, 72 h. The protocol:
as §2, §3, §4

The target in a further experiment is T4, Wild-Type ALK (Homo sapiens, UniProt Q9UM73).
T4 construct: purchased Life Technology
Put plainly: Z'-LYTE (FRET) ALK kinase inhibitory activity. Type of experiment: biochemical. Here is the method:
as §1

The term IC50 denotes the concentration that gives 50% inhibition.

Where only a bound is given, the exact number is not on record here.

T4 sequence (Q9UM73 19-1620): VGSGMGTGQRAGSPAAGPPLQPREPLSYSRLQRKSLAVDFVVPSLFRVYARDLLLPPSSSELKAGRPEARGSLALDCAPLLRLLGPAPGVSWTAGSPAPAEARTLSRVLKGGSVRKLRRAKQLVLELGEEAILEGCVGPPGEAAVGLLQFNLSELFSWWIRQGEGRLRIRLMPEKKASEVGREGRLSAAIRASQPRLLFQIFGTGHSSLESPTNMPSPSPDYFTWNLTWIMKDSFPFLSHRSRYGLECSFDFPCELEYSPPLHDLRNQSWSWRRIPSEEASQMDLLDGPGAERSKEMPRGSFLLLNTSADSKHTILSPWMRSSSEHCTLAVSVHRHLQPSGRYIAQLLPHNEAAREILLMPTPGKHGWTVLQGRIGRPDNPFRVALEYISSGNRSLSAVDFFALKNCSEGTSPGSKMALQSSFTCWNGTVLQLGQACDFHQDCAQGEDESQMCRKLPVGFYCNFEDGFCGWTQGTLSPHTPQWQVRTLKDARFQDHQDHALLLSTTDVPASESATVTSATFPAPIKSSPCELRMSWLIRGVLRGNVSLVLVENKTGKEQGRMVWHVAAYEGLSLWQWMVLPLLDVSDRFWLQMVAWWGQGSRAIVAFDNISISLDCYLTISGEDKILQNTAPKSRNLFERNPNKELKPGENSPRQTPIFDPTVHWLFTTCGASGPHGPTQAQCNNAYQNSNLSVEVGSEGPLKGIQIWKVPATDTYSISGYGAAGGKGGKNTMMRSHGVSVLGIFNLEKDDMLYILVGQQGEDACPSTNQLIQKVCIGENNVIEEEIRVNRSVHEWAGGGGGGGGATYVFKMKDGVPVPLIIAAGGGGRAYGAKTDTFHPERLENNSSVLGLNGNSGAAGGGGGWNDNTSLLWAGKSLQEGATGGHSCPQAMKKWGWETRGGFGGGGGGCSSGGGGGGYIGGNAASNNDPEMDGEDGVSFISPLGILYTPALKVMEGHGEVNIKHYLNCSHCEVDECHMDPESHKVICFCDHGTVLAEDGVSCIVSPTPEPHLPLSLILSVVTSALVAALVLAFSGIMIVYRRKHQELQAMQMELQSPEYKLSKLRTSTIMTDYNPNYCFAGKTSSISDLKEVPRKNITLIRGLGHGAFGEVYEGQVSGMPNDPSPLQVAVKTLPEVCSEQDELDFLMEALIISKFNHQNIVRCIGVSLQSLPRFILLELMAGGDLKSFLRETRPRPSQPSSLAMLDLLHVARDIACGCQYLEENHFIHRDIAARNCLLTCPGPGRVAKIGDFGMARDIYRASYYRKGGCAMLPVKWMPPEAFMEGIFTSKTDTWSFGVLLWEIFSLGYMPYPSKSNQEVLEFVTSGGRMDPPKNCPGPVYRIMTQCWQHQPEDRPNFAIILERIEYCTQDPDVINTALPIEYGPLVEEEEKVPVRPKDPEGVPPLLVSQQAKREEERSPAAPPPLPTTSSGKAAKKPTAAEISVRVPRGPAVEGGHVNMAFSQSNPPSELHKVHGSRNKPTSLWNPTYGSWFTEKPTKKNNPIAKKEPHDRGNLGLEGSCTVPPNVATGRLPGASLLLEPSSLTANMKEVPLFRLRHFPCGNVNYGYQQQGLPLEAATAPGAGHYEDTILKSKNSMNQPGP
T2 sequence (Q9UM73 whole entry G1202R, the tested form may be a part): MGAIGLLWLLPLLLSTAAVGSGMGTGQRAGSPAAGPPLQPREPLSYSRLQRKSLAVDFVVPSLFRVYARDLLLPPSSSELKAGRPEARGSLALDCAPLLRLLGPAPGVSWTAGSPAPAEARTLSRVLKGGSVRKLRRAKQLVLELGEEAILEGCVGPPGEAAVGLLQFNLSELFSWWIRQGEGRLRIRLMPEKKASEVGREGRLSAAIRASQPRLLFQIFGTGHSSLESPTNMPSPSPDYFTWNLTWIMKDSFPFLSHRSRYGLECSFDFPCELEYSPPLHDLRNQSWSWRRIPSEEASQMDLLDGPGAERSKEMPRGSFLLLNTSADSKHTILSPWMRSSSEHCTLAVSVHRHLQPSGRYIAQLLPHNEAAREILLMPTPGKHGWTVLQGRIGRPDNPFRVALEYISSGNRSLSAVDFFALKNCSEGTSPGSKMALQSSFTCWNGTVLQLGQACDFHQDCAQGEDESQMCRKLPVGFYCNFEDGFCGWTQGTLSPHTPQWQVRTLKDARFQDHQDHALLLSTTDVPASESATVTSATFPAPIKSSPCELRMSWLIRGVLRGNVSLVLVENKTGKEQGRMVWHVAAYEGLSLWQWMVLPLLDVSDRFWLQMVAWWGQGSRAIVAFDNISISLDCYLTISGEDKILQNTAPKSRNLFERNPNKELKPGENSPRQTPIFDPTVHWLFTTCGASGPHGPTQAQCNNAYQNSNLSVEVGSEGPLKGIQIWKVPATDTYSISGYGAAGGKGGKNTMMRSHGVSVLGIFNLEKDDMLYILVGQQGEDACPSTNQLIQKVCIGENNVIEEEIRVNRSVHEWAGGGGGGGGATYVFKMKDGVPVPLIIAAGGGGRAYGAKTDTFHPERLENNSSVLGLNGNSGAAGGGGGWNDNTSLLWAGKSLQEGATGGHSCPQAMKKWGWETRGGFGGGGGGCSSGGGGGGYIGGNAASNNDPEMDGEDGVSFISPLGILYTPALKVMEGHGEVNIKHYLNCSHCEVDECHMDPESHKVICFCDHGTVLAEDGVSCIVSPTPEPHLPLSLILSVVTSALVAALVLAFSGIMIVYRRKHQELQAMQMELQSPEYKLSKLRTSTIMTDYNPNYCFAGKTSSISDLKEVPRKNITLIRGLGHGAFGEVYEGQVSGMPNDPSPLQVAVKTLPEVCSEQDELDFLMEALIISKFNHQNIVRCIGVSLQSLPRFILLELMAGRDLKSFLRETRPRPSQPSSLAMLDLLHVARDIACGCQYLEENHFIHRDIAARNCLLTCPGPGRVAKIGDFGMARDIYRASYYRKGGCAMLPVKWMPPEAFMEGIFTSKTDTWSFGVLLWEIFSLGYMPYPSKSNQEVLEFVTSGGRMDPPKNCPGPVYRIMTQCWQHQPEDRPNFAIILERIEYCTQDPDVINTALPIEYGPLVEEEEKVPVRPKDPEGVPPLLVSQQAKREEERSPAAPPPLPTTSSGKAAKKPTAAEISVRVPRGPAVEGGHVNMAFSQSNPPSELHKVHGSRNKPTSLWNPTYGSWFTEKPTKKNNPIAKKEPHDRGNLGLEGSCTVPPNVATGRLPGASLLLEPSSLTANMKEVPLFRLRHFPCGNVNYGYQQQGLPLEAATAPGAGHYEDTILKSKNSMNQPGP
T1 sequence (Q9UM73 19-1620 L1196M): as the sequence (Q9UM73 19-1620) above, with L1178M counted along it
T3 sequence (Q9UM73 whole entry F1174L, the tested form may be a part): as the sequence (Q9UM73 whole entry G1202R, the tested form may be a part) above, with F1174L, R1202G counted along it

As to `Cc1cc(Nc2ncc(Cl)c(Nc3cn(C4CC4)nc3S(=O)(=O)C(C)C)n2)c2c(c1C1CCN(C)CC1)C[C@@H](C)O2` [REX-D34, (R)-5-chloro-N^4-(1-cyclopropyl-3-(isopropylsulfonyl)-1H-pyrazol-4-yl)-N^2-(2,5-dimethyl-4-(1-methylpiperidin-4-yl)-2,3-dihydrobenzofuran-7-yl)pyrimidine-2,4-diamine], the half-inhibitory concentration (IC50) was found to be 1.12 nM on ALK L1196M, 13.9 nM in the experiment with NCI-H3122 and 9.4 nM against Wild-Type ALK. Also, the GI50 at TEL-ALK-G1202R-BaF3 is > 180 nM; at TEL-ALK-F1174L-BaF3, 26.1 nM.
For the compound `Cc1cc(Nc2ncc(Cl)c(Nc3cn(C(C)C)nc3S(=O)(=O)C(C)C)n2)c2c(c1C1CCNCC1)C[C@@H](C)O2` [REX-D32, (R)-5-chloro-N^2-(2,5-dimethyl-4-(piperidin-4-yl)-2,3-dihydrobenzofuran-7-yl)-N^4-(1-isopropyl-3-(isopropylsulfonyl)-1H-pyrazol-4-yl)pyrimidine-2,4-diamine], the IC50 turned out to be 3.86 nM at ALK L1196M, 57.2 nM with NCI-H3122 and 19.3 nM against Wild-Type ALK. In addition, the GI50 on TEL-ALK-G1202R-BaF3 was > 180 nM; at TEL-ALK-F1174L-BaF3 it was < 200 nM.
On to `Cc1cc(Nc2ncc(Cl)c(Nc3cn(C)nc3S(=O)(=O)C(C)C)n2)c2c(c1C1CCN(C3CCNCC3)CC1)C[C@@H](C)O2` [REX-D13, (R)—N^2-(4-([1,4′-bipiperidin]-4-yl)-2,5-dimethyl-2,3-dihydrobenzofuran-7-yl)-5-chloro-N^4-(3-(isopropylsulfonyl)-1-methyl-1H-pyrazol-4-yl)pyrimidine-2,4-diamine], for which the figures for the IC50 on ALK L1196M, in the experiment with NCI-H3122 and on Wild-Type ALK were 1.02 nM, 33.7 nM and 18.8 nM, respectively. Also, the GI50 at TEL-ALK-G1202R-BaF3 is > 180 nM; at TEL-ALK-F1174L-BaF3, 94.3 nM.
`CCn1cc(Nc2nc(Nc3cc(C)c(C4CCN(C)CC4)c4c3O[C@H](C)C4)ncc2Cl)c(S(=O)(=O)C(C)C)n1` [REX-D36, (R)-5-chloro-N^2-(2,5-dimethyl-4-(1-methylpiperidin-4-yl)-2,3-dihydrobenzofuran-7-yl)-N^4-(1-ethyl-3-(isopropylsulfonyl)-1H-pyrazol-4-yl)pyrimidine-2,4-diamine]: the figures for the IC50 at ALK L1196M, with NCI-H3122 and at Wild-Type ALK were 0.55 nM, 11.4 nM and 9.28 nM, respectively. Further, the GI50 at TEL-ALK-G1202R-BaF3 is > 180 nM; on TEL-ALK-F1174L-BaF3, 22.4 nM.
As to `Cc1cc(Nc2nc(Nc3cn(C)nc3S(=O)(=O)C(C)C)c3sccc3n2)c2c(c1C1CCN(C)CC1)C[C@@H](C)O2` [REX-D30, (R)—N^2-(2,5-dimethyl-4-(1-methylpiperidin-4-yl)-2,3-dihydrobenzofuran-7-yl)-N^4-(3-(isopropylsulfonyl)-1-methyl-1H-pyrazol-4-yl)thieno[3,2-d]pyrimidine-2,4-diamine], the GI50 on TEL-ALK-G1202R-BaF3 was > 180 nM; on TEL-ALK-F1174L-BaF3 it was > 500 nM.
With `Cc1cc(Nc2ncc(Cl)c(Nc3cn(C4CC4)nc3S(=O)(=O)CC(C)C)n2)c2c(c1C1CCN(C)CC1)C[C@@H](C)O2` [REX-D41, (R)-5-chloro-N^4-(1-cyclopropyl-3-(isobutylsulfonyl)-1H-pyrazol-4-yl)-N^2-(2,5-dimethyl-4-(1-methylpiperidin-4-yl)-2,3-dihydrobenzofuran-7-yl)pyrimidine-2,4-diamine], the GI50 was > 180 nM on TEL-ALK-G1202R-BaF3 and 23.7 nM at TEL-ALK-F1174L-BaF3.
`CC(C)S(=O)(=O)c1nn(C)cc1Nc1nc(Nc2cc(F)c(C3CCN(C)CC3)c3c2O[C@H](C)C3)ncc1Cl` [REX-D24, (R)-5-chloro-N^2-(5-fluoro-2-methyl-4-(1-methylpiperidin-4-yl)-2,3-dihydrobenzofuran-7-yl)-N^4-(3-(isopropylsulfonyl)-1-methyl-1H-pyrazol-4-yl)pyrimidine-2,4-diamine]: the GI50 is > 180 nM at TEL-ALK-G1202R-BaF3 and < 10 nM on TEL-ALK-F1174L-BaF3.
For `CC(C)S(=O)(=O)c1nn(C)cc1Nc1nc(Nc2cc(F)c(C3CCNCC3)c3c2O[C@H](C)C3)ncc1Cl` [REX-D21, (R)-5-chloro-N^2-(5-fluoro-2-methyl-4-(piperidin-4-yl)-2,3-dihydrobenzofuran-7-yl)-N^4-(3-(isopropylsulfonyl)-1-methyl-1H-pyrazol-4-yl)pyrimidine-2,4-diamine], the values for the GI50 on TEL-ALK-G1202R-BaF3 and at TEL-ALK-F1174L-BaF3 were > 180 nM and 17.8 nM, respectively.
The like results for `Cc1cc(Nc2ncc(Cl)c(Nc3cn(C)nc3S(=O)(=O)CC(C)C)n2)c2c(c1C1CCN(CCO)CC1)C[C@@H](C)O2` [REX-D39, (R)-2-(4-(7-((5-chloro-4-((3-(isobutylsulfonyl)-1-methyl-1H-pyrazol-4-yl)amino)pyrimidin-2-yl)amino)-2,5-dimethyl-2,3-dihydrobenzofuran-4-yl)piperidin-1-yl)ethanol] were, in that order, > 180 nM and < 10 nM.
On to `Cc1cc(Nc2ncc(Cl)c(Nc3cn(C)nc3S(=O)(=O)CC(C)C)n2)c2c(c1C1CCNCC1)C[C@@H](C)O2` [REX-D37, (R)-5-chloro-N^2-(2,5-dimethyl-4-(piperidin-4-yl)-2,3-dihydrobenzofuran-7-yl)-N^4-(3-(isobutylsulfonyl)-1-methyl-1H-pyrazol-4-yl)pyrimidine-2,4-diamine], for which the GI50 at TEL-ALK-G1202R-BaF3 was > 180 nM; at TEL-ALK-F1174L-BaF3, 58.7 nM.
As to `Cc1cc(Nc2ncc(Cl)c(Nc3cn(C)nc3S(=O)(=O)C(C)C)n2)c2c(c1C1CCNCC1)CCC(C)O2` (stereo not shown) [REX-D22, 5-chloro-N^2-(2,6-dimethyl-5-(piperidin-4-yl)chroman-8-yl)-N^4-(3-(isopropylsulfonyl)-1-methyl-1H-pyrazol-4-yl)pyrimidine-2,4-diamine], the GI50 was > 180 nM at TEL-ALK-G1202R-BaF3 and 32.6 nM at TEL-ALK-F1174L-BaF3.
Regarding `Cc1cc(Nc2nc(Nc3cn(C)nc3S(=O)(=O)C(C)C)c3sccc3n2)c2c(c1C1CCNCC1)C[C@@H](C)O2` [REX-D29, (R)—N^2-(2,5-dimethyl-4-(piperidin-4-yl)-2,3-dihydrobenzofuran-7-yl)-N^4-(3-(isopropylsulfonyl)-1-methyl-1H-pyrazol-4-yl)thieno[3,2-d]pyrimidine-2,4-diamine], the values for the GI50 at TEL-ALK-G1202R-BaF3 and on TEL-ALK-F1174L-BaF3 were > 180 nM and > 500 nM, respectively.
With `Cc1cc(Nc2ncc(Cl)c(Nc3cn(C)nc3S(=O)(=O)C(C)C)n2)c2c(c1C1CCN(C(C)C)CC1)C[C@@H](C)O2` [REX-D14, (R)-5-chloro-N^2-(4-(1-isopropylpiperidin-4-yl)-2,5-dimethyl-2,3-dihydrobenzofuran-7-yl)-N^4-(3-(isopropylsulfonyl)-1-methyl-1H-pyrazol-4-yl)pyrimidine-2,4-diamine], the IC50 amounted to 1.1 nM at ALK L1196M, 10.7 nM with NCI-H3122 and 15.7 nM against Wild-Type ALK. In addition, the GI50 on TEL-ALK-G1202R-BaF3 was > 180 nM; at TEL-ALK-F1174L-BaF3 it was 11.2 nM.
For `CC(C)S(=O)(=O)c1nn(C)cc1Nc1nc(Nc2cc(F)c(C3CCN(C)CC3)c3c2O[C@H](C)C3)ncc1C(F)(F)F` [REX-D8, (R)—N^2-(5-fluoro-2-methyl-4-(1-methylpiperidin-4-yl)-2,3-dihydrobenzofuran-7-yl)-N^4-(3-(isopropylsulfonyl)-1-methyl-1H-pyrazol-4-yl)-5-(trifluoromethyl)pyrimidine-2,4-diamine], the GI50 was > 180 nM on TEL-ALK-G1202R-BaF3 and 11.4 nM on TEL-ALK-F1174L-BaF3.
On the same counts, the results for `Cc1cc(Nc2ncc(Cl)c(Nc3cn(C)nc3S(=O)(=O)CC(C)C)n2)c2c(c1C1CCN(C)CC1)C[C@@H](C)O2` [REX-D38, (R)-5-chloro-N^2-(2,5-dimethyl-4-(1-methylpiperidin-4-yl)-2,3-dihydrobenzofuran-7-yl)-N^4-(3-(isobutylsulfonyl)-1-methyl-1H-pyrazol-4-yl)pyrimidine-2,4-diamine] are > 180 nM and < 10 nM.
As to `Cc1cc(Nc2ncc(Cl)c(Nc3cn(C)nc3S(=O)(=O)C(C)C)n2)c2c(c1C1CCN(C)CC1)CCC(C)O2` (stereo not shown) [REX-D25, 5-chloro-N^2-(2,6-dimethyl-5-(1-methylpiperidin-4-yl)chroman-8-yl)-N^4-(3-(isopropylsulfonyl)-1-methyl-1H-pyrazol-4-yl)pyrimidine-2,4-diamine], the GI50 on TEL-ALK-G1202R-BaF3 was > 180 nM; at TEL-ALK-F1174L-BaF3 it was 11.1 nM.
For `Cc1cc(Nc2ncc(Cl)c(Nc3cn(C4CC4)nc3S(=O)(=O)CC(C)C)n2)c2c(c1C1CCNCC1)C[C@@H](C)O2` [REX-D40, (R)-5-chloro-N^4-(1-cyclopropyl-3-(isobutylsulfonyl)-1H-pyrazol-4-yl)-N^2-(2,5-dimethyl-4-(piperidin-4-yl)-2,3-dihydrobenzofuran-7-yl)pyrimidine-2,4-diamine], the GI50 is > 180 nM on TEL-ALK-G1202R-BaF3 and 94.8 nM at TEL-ALK-F1174L-BaF3.
